Assay results as given in the NIST ThermoML archive (doi:10.1021/je400415r).

Experiment: mn = molality of the nth substance listed, in mol/kg
Details: 101 kPa, Liquid; for speed of sound: Pulse-echo method; for mass density: Vibrating tube method

NCC(=O)O [2-aminoacetic acid] + O
Details | mass density, 288.15 K [kg/m3] | mass density, 298.15 K [kg/m3] | mass density, 308.15 K [kg/m3] | mass density, 318.15 K [kg/m3] | speed of sound, 288.15 K [m/s] | speed of sound, 298.15 K [m/s] | speed of sound, 308.15 K [m/s] | speed of sound, 318.15 K [m/s]
m1 = 0.04998 | 1000.77 | 998.679 | 995.632 | 991.792 | 1469.2 | 1499.4 | 1522.2 | 1538.6
m1 = 0.1399 | 1003.74 | 1001.58 | 998.484 | 994.608 | 1474.3 | 1504.2 | 1526.8 | 1543
m1 = 0.2276 | 1006.6 | 1004.38 | 1001.24 | 997.323 | 1479.2 | 1508.8 | 1531.1 | 1547.1
m1 = 0.4056 | 1012.27 | 1009.94 | 1006.71 | 1002.72 | 1488.9 | 1517.9 | 1539.7 | 1555.4
m1 = 0.5835 | 1017.82 | 1015.36 | 1012.04 | 1007.99 | 1498.4 | 1526.8 | 1548.2 | 1563.5
m1 = 0.7602 | 1023.19 | 1020.62 | 1017.22 | 1013.1 | 1507.6 | 1535.4 | 1556.3 | 1571.3
m1 = 0.9386 | 1028.48 | 1025.81 | 1022.32 | 1018.13 | 1516.7 | 1543.9 | 1564.4 | 1579
m1 = 1.117 | 1033.62 | 1030.85 | 1027.28 | 1023.04 | 1525.5 | 1552.2 | 1572.2 | 1586.4
m1 = 1.296 | 1038.69 | 1035.81 | 1032.17 | 1027.84 | 1534.1 | 1560.3 | 1579.8 | 1593.7

CCC(N)C(=O)O (stereo not drawn) [(.+-.)-α-aminobutyric acid] + O
Details | mass density, 288.15 K [kg/m3] | mass density, 298.15 K [kg/m3] | mass density, 308.15 K [kg/m3] | mass density, 318.15 K [kg/m3] | speed of sound, 288.15 K [m/s] | speed of sound, 298.15 K [m/s] | speed of sound, 308.15 K [m/s] | speed of sound, 318.15 K [m/s]
m1 = 0.04996 | 1000.54 | 998.441 | 995.405 | 991.565 | 1470.8 | 1500.8 | 1523.5 | 1539.8
m1 = 0.1498 | 1003.36 | 1001.19 | 998.105 | 994.226 | 1479.5 | 1508.9 | 1530.9 | 1546.7
m1 = 0.2141 | 1005.15 | 1002.92 | 999.815 | 995.911 | 1485.2 | 1513.8 | 1535.7 | 1551.1
m1 = 0.4366 | 1011.15 | 1008.79 | 1005.56 | 1001.57 | 1504.2 | 1531.5 | 1551.8 | 1566
m1 = 0.6599 | 1016.91 | 1014.4 | 1011.06 | 1006.99 | 1522.7 | 1548.4 | 1567.4 | 1580.5
m1 = 0.8834 | 1022.42 | 1019.77 | 1016.34 | 1012.18 | 1540.7 | 1564.9 | 1582.6 | 1594.5
m1 = 1.106 | 1027.68 | 1024.9 | 1021.35 | 1017.13 | 1558 | 1580.7 | 1597.2 | 1608
m1 = 1.33 | 1032.73 | 1029.83 | 1026.17 | 1021.87 | 1574.8 | 1596.1 | 1611.3 | 1621
m1 = 1.552 | 1037.55 | 1034.52 | 1030.77 | 1026.4 | 1590.9 | 1610.8 | 1624.8 | 1633.5
m1 = 1.774 | 1042.19 | 1039.05 | 1035.2 | 1030.74 | 1606.6 | 1625.1 | 1637.8 | 1645.5
m1 = 1.998 | 1046.67 | 1043.4 | 1039.51 | 1034.95 | 1621.7 | 1638.9 | 1650.5 | 1657.1
